# Experimental data published in patent US20130109734A1 (Metabolex, Inc., priority 2010, published 2013).
# Target: T1, human GPR120 (Homo sapiens, UniProt Q5NUL3)
# T1 construct: host or cells: HEK293 cells co-expressing Gqi5
# T1 sequence (Q5NUL3 1-361): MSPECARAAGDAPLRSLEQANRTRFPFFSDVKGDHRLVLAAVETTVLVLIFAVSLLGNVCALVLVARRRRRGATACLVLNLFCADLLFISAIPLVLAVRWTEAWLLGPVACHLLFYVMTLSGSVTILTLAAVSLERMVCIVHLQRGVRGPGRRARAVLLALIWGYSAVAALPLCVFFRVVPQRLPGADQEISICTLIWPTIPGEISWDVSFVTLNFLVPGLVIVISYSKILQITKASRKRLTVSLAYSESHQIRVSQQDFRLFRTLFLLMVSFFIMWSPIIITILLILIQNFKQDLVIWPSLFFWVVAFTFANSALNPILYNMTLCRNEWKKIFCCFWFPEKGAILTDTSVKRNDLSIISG
# Assay: Intracellular Ca2+ assay in human GPR120 stable cell line (HEK293 co-expressing Gqi5), Flexstation
# Format: cell-based
# Settings: % activity at 5 μM compared to the maximal activity of GW9508 at 6.7 μM (=100%); human GPR120 cells, Ca2+ fluorescence
# Method: Human GPR120 stable cell line was purchased from Multispan Inc (26219 Eden Landing Road, Hayward, Calif. 94545). This GPR120 cell line was generated in HEK293 cells co-expressing Gqi5. In this cell line, the Flag epitope tag (DYKDDDDK) was fused to the amino terminus of human GPR120 protein.
# The concentration of intracellular Ca^2+ was measured as described below. Human GPR120 cells were plated in 96 well plates (Poly-D-Lysine coated black/clear Plate, Greiner Bio-One) at 70,000 cells per well and cultured overnight in conditions of 37° C. and 5% CO2. A Ca^2+assay dye stock solution was prepared by adding 10 mL of assay buffer (HBSS/20 mM HEPES, pH 7.4) to FLIPR Calcium 4 Assay Bulk Kit (Molecular Devices). The 10 mL of Ca^2+ assay dye solution was prepared by further diluting 0.5 mL of Ca^2+ assay dye stock solution with 10 mL of assay buffer. The medium of the cells was removed and immediately 100 μL of the Ca^2+ assay dye solution was dispensed into each well followed by incubation at 37° C. and 5% CO2 for 50 minutes to incorporate the Ca^2+ dye into the cells. The cell plate was then placed in the Flexstation (Molecular Devices) for 20 minutes at 37° C. Compounds were dissolved in 100% DMSO and diluted to desired concentrations with assay buffer and placed in the Flexstation simultaneously with the cell plate for 20 minute incubation at 37° C. prior to reading. Fluorescence intensity was measured immediately following compound addition (25 μL/well) on the Flexstation at an excitation wavelength of 485 nm and an emission wavelength of 525 with 515 nm auto cutoff. The resulting increase in fluorescence intensities corresponds to increases in intracellular Ca^2+ levels.
# Compounds were dissolved in 100% DMSO to a concentration of 20 mM to provide stock solutions. To determine activity against human GPR120, compounds were added with human GPR120 stably expressing cells (described above), at eight desired concentrations ranging from 0.00001 to 20 μM, in 96 well plates and fluorescence intensities were measured for 90 seconds with 2-second intervals. An EC50 value (concentration of the GPR120 agonist where 50% of the agonist's maximal activity is observed) was calculated using the changes (Max−Min) of fluorescence intensity.
# To determine percent activity for a tested compound, the fluorescence intensity value obtained at a particular concentration were compared to the maximal fluorescence intensity value obtained for reference compound GW9508 (4-[[(3-phenoxyphenyl)methyl]amino]benzene propanoic acid; British Journal of Pharmacology 2006 148, 619-628) or the compound of Example 25. When GW9508 was used as the reference compound, the maximal activity of GW9508 at 6.7 μM was designated as 100% activity. When the compound of Example 25 was used as the reference compound, the maximal activity of the compound of Example 25 at 2.5 μM was designated as 100% activity. Typically, the GW9508 activity reached a maximum at a concentration of approximately 6.7 μM and typically the compound of Example 25 reached a maximum activity at approximately 2.5 μM.
row,SMILES,% Activity (GW9508 Reference Compound)
1,"CC1(C)Cc2cccc(COc3c(F)cc(C4CC4C(=O)O)cc3F)c2O1 (centres unmarked) [Example 24, 2-(4-((2,2-dimethyl-2,3-dihydrobenzofuran-7-yl)methoxy)-3,5-difluorophenyl)cyclopropanecarboxylic acid]",100.3%
2,"CC1(C)Cc2cccc(COc3c(F)cc(CCC(=O)O)cc3F)c2O1 [Example 25, 3-(4-((2,2-dimethyl-2,3-dihydrobenzofuran-7-yl)methoxy)-3,5-difluorophenyl)propanoic acid]",101.8%
3,"CC(Cc1ccc(OCc2cc(Cl)cc3c2OC(C)(C)C3)cc1Cl)C(=O)O (centres unmarked) [Example 26, 3-(2-chloro-4-((5-chloro-2,2-dimethyl-2,3-dihydrobenzofuran-7-yl)methoxy)phenyl)-2-methylpropanoic acid]",163.7%
4,"CC1(C)Cc2c(F)ccc(COc3c(F)cc(C4CC4C(=O)O)cc3F)c2O1 (centres unmarked) [Example 27, 2-(3,5-difluoro-4-((4-fluoro-2,2-dimethyl-2,3-dihydrobenzofuran-7-yl)methoxy)phenyl)cyclopropanecarboxylic acid]",143.8489%
5,"CC(Cc1cc(F)c(OCc2ccc(F)c3c2OC(C)(C)C3)c(F)c1)C(=O)O (centres unmarked) [Example 28, 3-(3,5-difluoro-4-((4-fluoro-2,2-dimethyl-2,3-dihydrobenzofuran-7-yl)methoxy)phenyl)-2-methylpropanoic acid]",109.6%
6,"CC(Cc1ccc(OCc2ccc(F)c3c2OC(C)(C)C3)c(F)c1)C(=O)O (centres unmarked) [Example 29, 3-(3-fluoro-4-((4-fluoro-2,2-dimethyl-2,3-dihydrobenzofuran-7-yl)methoxy)phenyl)-2-methylpropanoic acid]",133.5%
7,"CC(Cc1ccc(OCc2ccc(F)c3c2OC(C)(C)C3)cc1)C(=O)O (centres unmarked) [Example 30, 3-(4-((4-fluoro-2,2-dimethyl-2,3-dihydrobenzofuran-7-yl)methoxy)phenyl)-2-methylpropanoic acid]",176.6%

# The next lines start with the values.
row,% Activity (GW9508 Reference Compound),SMILES
1,149.5%,"CC1(C)Cc2c(C(F)(F)F)ccc(COc3c(F)cc(C4CC4C(=O)O)cc3F)c2O1 (centres unmarked) [Example 31, 2-(4-((2,2-dimethyl-4-(trifluoromethyl)-2,3-dihydrobenzofuran-7-yl)methoxy)-3,5-difluorophenyl)cyclopropanecarboxylic acid]"
2,143.1%,"CC(Cc1cc(F)c(OCc2ccc(C(F)(F)F)c3c2OC(C)(C)C3)c(F)c1)C(=O)O (centres unmarked) [Example 32, 3-(4-((2,2-dimethyl-4-(trifluoromethyl)-2,3-dihydrobenzofuran-7-yl)methoxy)-3,5-difluorophenyl)-2-methylpropanoic acid]"
3,142.9517%,"CC(Cc1ccc(OCc2ccc(C(F)(F)F)c3c2OC(C)(C)C3)c(F)c1)C(=O)O (centres unmarked) [Example 33, 3-(4-((2,2-dimethyl-4-(trifluoromethyl)-2,3-dihydrobenzofuran-7-yl)methoxy)-3-fluorophenyl)-2-methylpropanoic acid]"
4,117.9%,"CC(Cc1ccc(OCc2ccc(C(F)(F)F)c3c2OC(C)(C)C3)cc1)C(=O)O (centres unmarked) [Example 34, 3-(4-((2,2-dimethyl-4-(trifluoromethyl)-2,3-dihydrobenzofuran-7-yl)methoxy)phenyl)-2-methylpropanoic acid]"
5,122.9%,"CC1(C)Cc2cc(Cl)cc(COc3ccc4c(c3)CCC4CC(=O)O)c2O1 (centres unmarked) [Example 36, 2-(5-((5-chloro-2,2-dimethyl-2,3-dihydrobenzofuran-7-yl)methoxy)-2,3-dihydro-1H-inden-1-yl)acetic acid]"
6,124.7%,"CC1(C)Cc2cc(F)cc(COc3ccc4c(c3)CCC4CC(=O)O)c2O1 (centres unmarked) [Example 37, 2-(5-((5-fluoro-2,2-dimethyl-2,3-dihydrobenzofuran-7-yl)methoxy)-2,3-dihydro-1H-inden-1-yl)acetic acid]"

# Same assay, conditions: human GPR120 cells, Ca2+ fluorescence; reference compounds, typical value
row,concentration at which activity reached a maximum,SMILES
1,approximately 2.5 μM,"CC1(C)Cc2cccc(COc3c(F)cc(CCC(=O)O)cc3F)c2O1 [Example 25, 3-(4-((2,2-dimethyl-2,3-dihydrobenzofuran-7-yl)methoxy)-3,5-difluorophenyl)propanoic acid]"
